Experiment [1] addresses T1, human Melanin Concentrating Hormone receptor 1 (MCHR1) (Homo sapiens, UniProt Q99705).
T1 construct: host or cells: CHO-K1 (membranes)
The experiment is described as follows: MCHr1 IC50 (MCH binding assay / MCHR1 receptor activation assay).

The target of experiment [2] is T2, human histamine H3 receptors (Homo sapiens, UniProt Q9Y5N1).
T2 construct: human histamine H3 receptors (full-length H3, the most prevalent brain isoform 445); host or cells: CHO-K1, stably expressing (membranes)
The experiment is described as follows: Histamine H3 SPA with [3H]-N-α-methylhistamine and/or GTPγS binding assay. Background: GTPγS resists hydrolysis and so accumulates on activated G proteins.

For 9 compounds, IC50 results are on record in US8110566B2, “Therapeutic agents 713” (AstraZeneca AB, priority 2009, dated 2012).

T2 sequence (Q9Y5N1 whole entry, canonical isoform): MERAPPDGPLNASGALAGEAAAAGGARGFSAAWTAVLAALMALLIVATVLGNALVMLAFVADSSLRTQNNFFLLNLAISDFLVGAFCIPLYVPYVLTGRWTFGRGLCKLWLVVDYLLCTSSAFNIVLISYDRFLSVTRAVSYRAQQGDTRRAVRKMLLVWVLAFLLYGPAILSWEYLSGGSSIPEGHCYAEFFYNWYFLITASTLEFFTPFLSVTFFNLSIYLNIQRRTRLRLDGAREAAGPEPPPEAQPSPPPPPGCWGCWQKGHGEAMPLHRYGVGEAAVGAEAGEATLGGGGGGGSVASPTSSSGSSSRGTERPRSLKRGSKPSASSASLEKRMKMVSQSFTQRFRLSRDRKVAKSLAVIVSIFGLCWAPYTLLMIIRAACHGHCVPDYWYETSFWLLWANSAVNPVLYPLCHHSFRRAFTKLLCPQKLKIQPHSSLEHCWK
T1 sequence (Q99705 whole entry): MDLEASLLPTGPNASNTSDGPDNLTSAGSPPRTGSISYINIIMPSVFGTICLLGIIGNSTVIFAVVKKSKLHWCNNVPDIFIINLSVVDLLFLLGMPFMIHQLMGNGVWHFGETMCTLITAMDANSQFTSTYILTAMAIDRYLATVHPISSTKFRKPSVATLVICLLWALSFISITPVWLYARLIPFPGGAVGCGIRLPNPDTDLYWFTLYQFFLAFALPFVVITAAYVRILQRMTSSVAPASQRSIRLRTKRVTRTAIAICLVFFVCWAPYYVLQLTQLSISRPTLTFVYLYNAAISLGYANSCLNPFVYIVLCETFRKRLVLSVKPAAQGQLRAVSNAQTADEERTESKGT

The term IC50 denotes the concentration at which inhibition is half-maximal. Regarding `CC1(C)COC12CN(Cc1ccc(OC3CN(C(=O)c4nnc(-c5ccccc5)o4)C3)c(Cl)c1)C2` [Example 10, (3-(2-Chloro-4-((3,3-dimethyl-1-oxa-6-azaspiro[3.3]heptan-6-yl)methyl)phenoxy)azetidin-1-yl)(5-phenyl-1,3,4-oxadiazol-2-yl)methanone], the IC50 in experiment [1] worked out at 30 nM.
As for `O=C(c1nnc(-c2ccc(F)cc2)o1)N1CC(Oc2ccc(CN3CC4(COC4)C3)cc2)C1` [Example 6, (3-(4-(2-Oxa-6-azaspiro[3.3]heptan-6-ylmethyl)phenoxy)azetidin-1-yl)(5-(4-fluorophenyl)-1,3,4-oxadiazol-2-yl)methanone], in experiment [1], the IC50 stood at 24 nM.
On to `O=C(c1nnc(-c2ccccc2)o1)N1CC(Oc2ccc(CN3CC4(COC4)C3)cc2)C1` [Example 3, (3-(4-(2-Oxa-6-azaspiro[3.3]heptan-6-ylmethyl)phenoxy)azetidin-1-yl)(5-phenyl-1,3,4-oxadiazol-2-yl)methanone], for which the IC50 in experiment [2] amounted to 800 nM. That is a sub-micromolar value.
`O=C(c1nnc(-c2ccccc2)o1)N1CC(Oc2ccc(CN3CC4(COC4)C3)cc2Cl)C1` [Example 8, (3-(4-(2-Oxa-6-azaspiro[3.3]heptan-6-ylmethyl)-2-chlorophenoxy)azetidin-1-yl)(5-phenyl-1,3,4-oxadiazol-2-yl)methanone]: the IC50 in experiment [1] turned out to be 24 nM.
In experiment [1], `COc1ccc(-c2nnc(C(=O)N3CC(Oc4ccc(CN5CC6(C5)OCC6(C)C)cc4)C3)o2)cc1` [Example 9, (3-(4-((3,3-Dimethyl-1-oxa-6-azaspiro[3.3]heptan-6-yl)methyl)phenoxy)azetidin-1-yl)(5-(4-methoxyphenyl)-1,3,4-oxadiazol-2-yl)methanone] displayed an IC50 of 27 nM.
In the case of `O=C(c1nnc(-c2ccc(OC(F)F)cc2)o1)N1CC(Oc2ccc(CN3CC4(COC4)C3)cc2)C1` [Example 7, (3-(4-(2-Oxa-6-azaspiro[3.3]heptan-6-ylmethyl)phenoxy)azetidin-1-yl)(5-(4-(difluoromethoxy)phenyl)-1,3,4-oxadiazol-2-yl)methanone], the IC50 in experiment [1] stood at 12 nM.
As for `O=C(c1nnc(-c2ccc(Cl)cc2)o1)N1CC(Oc2ccc(CN3CC4(COC4)C3)cc2)C1` [Example 2, (3-(4-(2-Oxa-6-azaspiro[3.3]heptan-6-ylmethyl)phenoxy)azetidin-1-yl)(5-(4-chlorophenyl)-1,3,4-oxadiazol-2-yl)methanone], the values for the IC50 in experiment [1] and in experiment [2] were 10 nM and 620 nM, respectively.
As for `O=C(c1nnc(-c2ccccc2)o1)N1CC(Sc2ccc(CN3CC4(COC4)C3)cc2)C1` [Example 5, (3-(4-(2-Oxa-6-azaspiro[3.3]heptan-6-ylmethyl)phenylthio)azetidin-1-yl)(5-phenyl-1,3,4-oxadiazol-2-yl)methanone], in experiment [1], the IC50 came out at 17 nM. In other words, the double-digit nanomolar range.
As for `O=C(c1nnc(-c2ccccc2)o1)N1CC(Oc2ccc(CN3CC4(COC4)C3)c(Cl)c2)C1` [Example 1, (3-(4-(2-Oxa-6-azaspiro[3.3]heptan-6-ylmethyl)-3-chlorophenoxy)azetidin-1-yl)(5-phenyl-1,3,4-oxadiazol-2-yl)methanone], the half-maximal inhibitory concentration (IC50) turned out to be 17 nM in experiment [1] and 410 nM in experiment [2].
